The test system of one assay is CHOP. As to the kind of experiment: Western blot, CHOP expression in CRL-2813 cells. In kind it is cell-based, human. The note with it: 5 μM, 8 hours, Western blot (FIG. 2B). As to the method:
(§1) FIGS. 2A-2B show HRI activators of the present application induce eIF2α phosphorylation and modify its downstream effectors. In FIG. 2A, CRL-2813 cells were treated with 5 μM of each compound for 2 hours, cell lysates were probed with phosphorylated (P-eIF2α) and total eIF2α (T-eIF2α) and β-actin specific antibodies. In FIG. 2B, CRL-2813 cells were treated with 5 μM HRI activators for 8 hours and lysates were immunoblotted with antibodies against CHOP, p27^KiPl, cyclin D1 and β-actin.
(§2) Cells cultured under recommended media conditions were plated and maintained in serum-containing media without antibiotics in 14-cm plates (Nunc) until reaching 70% confluence. Cells were then treated with compounds for 6 h, washed with cold PBS once, and lysed with M-PER Mammalian Protein Extraction Reagent (Pierce) for 30 min on ice. The cell lysates were centrifuged at 12,000 RPM for 15 min and the supernatants were transferred to fresh tubes and the concentrations were determined by BCA (Pierce). Equal amount of proteins were mixed with Laemmli Sample Buffer, heated at 100° C. for 5 min, separated by SDS-PAGE, and probed with anti-phosphoserine-51-eIF2α (Phos-eIF2α), anti-total eIF2α-specific antibodies (Total-eIF2α) (Biosource International, Hopkinton, MA), anti-CHOP, anti-cyclin D1 or anti-actin (Santa Cruz Biotechnology, CA) using procedures substantially similar to previous reports (see e.g., Aktas et al, Mol. Cell. Biol. 17 (1997) 3850-3857).
(§3) Endogenous eIF2α is the best-known substrate of HRI and the upstream regulator of the eIF2·GTP·Met-tRNAi ternary complex abundance, while CHOP expression is a downstream effector of eIF2α phosphorylation. For assessing eIF2α phosphorylation, blotted cell lysates were treated for two hours with vehicle or selected compounds using antibodies specific for the total-eIF2α and the phosphorylated-eIF2α (T-eIF2α and [PhoS^51]-eIF2α), respectively (see e.g., Aktas et al, J. Nutr. 134 (2004) 2487S-2491S) (see FIG. 2A).
Background: Immunoblotting shows a protein as a band on a membrane.

In a further assay the test system is cyclin D1. The experiment in a line: Western blot, cyclin D1 expression in CRL-2813 cells. In kind it is cell-based, human. The conditions noted are these: 5 μM, 8 hours, Western blot (FIG. 2B). On the procedure:
as §1, §2, §3

For assay [1], the system named is human melanoma CRL-2813 cells. The experiment in a line: sulforhodamine B (SRB) cell proliferation assay. In kind it is cell-based. The note with it: 5 days, read-out: IC50 (concentration that inhibits growth of human melanoma CRL-2813 cells by 50%).
Assay [2] deals with MCF-7 cells transfected with siRNA targeting HRI. As to the kind of experiment: cell proliferation assay with siRNA knockdown of HRI (specificity for HRI). In kind it is cell-based, human. The note with it: MCF-7 cells with or without siRNA targeting HRI; three days; SRB (FIG. 3). On the procedure:
MCF-7 cells transfected with (solid bars) or without (hatched bars) siRNA targeting HRI were treated with the indicated concentrations of each compound for three days starting one day after transfection. Cell proliferation was measured by sulforhodamine B assay as previously reported (see e.g., Chen et al, Nat. Chem. Biol. 7 (2011) 610-616).
Stable cell lines utilized in this study were generated according to previous reports (see e.g., Bai et al, ChemBioChem, 14 (2013) 1255-1262). Briefly, cells were seeded at the density of 10^5 in 60-mm dish and transfected one day later using the Lipofectamine 2000 (Invitrogen). For selection of stable cell lines, transfected cells were transferred to 100-mm plates and selected with appropriate antibiotics (see e.g., Chen et al, Nat. Chem. Biol. 7 (2011) 610-616). siRNA knockdown was carried out in 96-well plates by reverse transfection as previously reported (see e.g., Chen et al, Nat. Chem. Biol. 7 (2011) 610-616).
To determine the specificity of the compounds described herein for HRI, knockdown expression of HRI in MCF-7 cells using a pool of siRNA targeting HRI was performed, along with a cell proliferation assay as a biologic response parameter (see e.g., Chen et al, Nat. Chem. Biol. 7 (2011) 610-616; and Chen et al, J. Med. Chem. 56 (2013) 9457-9470). This assay was selected because it compares specificity of the compounds for HRI compared to all other cellular targets that can impinge on cell proliferation. MCF-7 human breast cancer cells transfected with siRNA targeting HRI or vehicle were treated with various concentrations of representative 4-CF3-ΦOcHΦUs (1-VI, 4-VI, and 5-VI) and 4-CF3-ΦOcBΦU (1-IV).

Like-named read-outs stand apart in the source and are kept apart here.

Take `N#Cc1cc(NC(=O)N[C@H]2C[C@H](Oc3ccc(C(F)(F)F)cc3)C2)cc(C(F)(F)F)c1` [Compound 1-IV, 1-(3-Cyano-5-(trifluoromethyl)phenyl)-3-(trans-3-(4-(trifluoromethyl)phenoxy)cyclobutyl)urea]: the “expression of CHOP relative to DMSO” value with CHOP was “increased the expression of CHOP”. Moreover, the “expression of cyclin D1 relative to DMSO” value with cyclin D1 was “decreased the expression of cyclin D1”. Moreover, the IC50 in assay [1] (Homo sapiens, CRL2813, 120 h) was determined as 900 nM. Also, in assay [2], the “effect of knocking down HRI on the anti-proliferative activity” value (from here on “effect of knocking down HRI”) is “dramatic reduction in the activity”.
Regarding `N#Cc1cc(NC(=O)N[C@H]2CC[C@H](Oc3ccc(C(F)(F)F)cc3)CC2)cc(C(F)(F)F)c1` [Compound 1-VI, 1-(3-cyano-5-trifluoromethyl) phenyl-3-(trans-4-(4-(trifluoromethyl)phenoxy)cyclohexyl)urea, reference compound], the “expression of CHOP relative to DMSO” value in the assay on CHOP is “increased the expression of CHOP”. For the same molecule, the “expression of cyclin D1 relative to DMSO” value in the assay with cyclin D1 was “decreased the expression of cyclin D1”. Besides, in assay [1], the IC50 turned out to be 350 nM. Also, in assay [2], the “effect of knocking down HRI” value is “dramatic reduction in the activity”.
On to `N#Cc1cc(F)cc(NC(=O)N[C@H]2CC[C@H](Oc3ccc(C(F)(F)F)cc3)CC2)c1` [Compound 4-VI, 1-(3-Cyano-5-fluorophenyl)-3-(trans-4-(4-(trifluoromethyl)phenoxy)cyclohexyl)urea], for which the “expression of CHOP relative to DMSO” value in the assay with CHOP was “increased the expression of CHOP”. The “expression of cyclin D1 relative to DMSO” value with cyclin D1 is given as “decreased the expression of cyclin D1”. For the same molecule, in assay [1], the IC50 worked out at 630 ± 300 nM. Moreover, the “effect of knocking down HRI” value in assay [2] is “dramatic reduction in the activity”.
With `N#Cc1ccc(NC(=O)N[C@H]2CC[C@H](Oc3ccc(C(F)(F)F)cc3)CC2)cc1F` [Compound 5-VI, 1-(4-Cyano-3-fluorophenyl)-3-(trans-4-(4-(trifluoromethyl)phenoxy)cyclohexyl)urea], in the assay on CHOP, the “expression of CHOP relative to DMSO” value is on record as “increased the expression of CHOP”. Besides, in the assay on cyclin D1, the “expression of cyclin D1 relative to DMSO” value is on record as “decreased the expression of cyclin D1”. Also, the IC50 in assay [1] (Homo sapiens, CRL2813, 120 h) worked out at 460 nM. Further, the “effect of knocking down HRI” value in assay [2] is reported as “dramatic reduction in the activity”.

For the origin of these results see patent publication US20240076272A1, “Activators of Heme Regulated Inhibitor Kinase (HRI)” (The Brigham and Women`s Hospital, Inc., priority 2019, published 2024).
